Measured values published in patent US11384371B2, “Hydroxylation of branched aliphatic or aromatic substrates employing the amycolatopsis lurida cytochrome P450” (HYPHA DISCOVERY LIMITED, priority 2016, dated 2022).

Assays:
[1] = tested on: P450aluC09; assay: Cell-free hydroxylase activity of lyophilised recombinant P450aluC09-ferredoxinaluF03-ferredoxin reductaseSCF15A, conversion by UPLC-MS; format: biochemical, Amycolatopsis lurida; settings: 16-20 hours; for hydroxylase activity (conversion to hydroxylated product): 0.1 mg/ml substrate
Experimental: Lyophilised material of recombinant P450aluC09, ferredoxinaluF03 and ferredoxin reductaseSCF15A was made as described in examples 5 and 6 and suspended in water to a final concentration of 2.9 μM of P450aluC09 and 919 UN of ferredoxin reductaseSCF15A. […] 50 mM potassium phosphate pH 7.4, 5 mM MgCl2, 0.1 mg/ml substrate compound such as bosentan (CarboSynth Ltd, UK), buparvaquone (MedChemtronica, Sweden), BIRB796 (Stratech Scientific Limited, UK), diclofenac (Sigma-Aldrich, UK), epothilone B (LC Laboratories, USA) or ritonavir (TCI, UK), tivantinib (MedChemtronica, Sweden), 2.4 μM of P450AluC09, 767 UN of ferredoxin reductaseSCF15A, 5 mM G6P, 1 mM NADP, 2 UN/ml G6PDH in a final volume of 100 μL. After 16-20 hours, reactions were extracted with an equal volume of acetonitrile, centrifuged to remove precipitated proteins and conversion assessed by UPLC-MS analysis.
The method in Example 7 was followed except for the buffer exchange section. Four different buffers were chosen: a) 50 mM Acetate pH 5, 100 mM NaCl, 5 mM MgCl2; b) 50 mM potassium phosphate pH7.5, 5 mM MgCl2; c) 50 mM Tris pH 8, 100 mM NaCl, 5 mM MgCl2; d) 50 mM Piperidine pH11, 100 mM NaCl, 5 mM MgCl2. For each buffer condition 1.5 ml of resuspended lyophilised crude extract was exchanged using Vivaspin 20K cut off by performing 3 cycles of concentration and then dilution of the material with the new buffer. Exchanging in 50 mM potassium phosphate pH7.5, 5 mM MgCl2, the usual buffer for preparing and assessment of the enzyme preparations, provided the control for the robustness of the material during the buffer exchange process. […] Of particular note is the activity of this recombinant enzyme at such elevated pH values e.g., pH value of 11. […] Other advantages of catalysis at higher pH are the ability to directly utilise the product from a prior step resulting in such products, such as chemical synthesis, base-catalysed hydrolysis of a feedstock, or reaction product from another enzyme where increasing pH has been used to stop that reaction

[2] = tested on: P450aluC09; assay: Whole-cell biocatalysis (hydroxylation) by recombinant E. coli expressing P450aluC09 with redox partners; format: cell-based, Amycolatopsis lurida
Experimental: The recombinant expression strains E. coli BL21 Star (DE3) pLysS with pQR368bb-aluC09-aluF03 and E. coli BL21 Star (DE3) pLysS with p3C.1-AluC09-AluF03 were cultured in Terrific Broth media as in Example 5 and gene expression was induced by adding IPTG to reach the final concentration of 1 mM. The culture was supplemented with FeSO4 and 5′-aminolevulinic acid as in Example 5.
(§1) After four hours of incubation at 27° C. and 200 rpm, 2.5 mL of induced culture was dosed with 10 μL of either bosentan or diclofenac (25 mg/mL each) in a 24-well block (Enzyscreen). The whole-cell biocatalysis reaction was allowed to further incubate for 24 hours at 30° C. and 300 rpm. The reaction was stopped with an equal amount of acetonitrile and conversion assessed by UPLC-MS analysis in a similar manner to that described in Example 7.

[3] = tested on: P450aluC09 fused in-frame with the reductase domain of P450BM3; assay: Whole-cell biocatalysis by E. coli expressing P450aluC09 fused with the reductase domain of P450BM3; format: cell-based, Amycolatopsis lurida / Bacillus megaterium; settings: pET21a-AluC09_BM3, E. coli BL21 Star (DE3) pLysS
Experimental: as §1
The P450aluC09 was engineered to fuse in-frame to the reductase domain of P450BM3 from Bacillus megaterium in a similar manner described in Scheps et al. Microb Biotechnol. 2013; 6(6):694-707.
Whole-cell hydroxylating activity of E. coli BL21 Star (DE3) pLysS with either pQR368bb-aluC09-aluF03 or pET21a-AluC09_BM3 plasmid were compared against the substrates bosentan and diclofenac in a similar manner described in Example 10.

[4] = tested on: P450aluC09; assay: Whole-cell biocatalysis (hydroxylation) by recombinant E. coli expressing P450aluC09 with redox partners; format: cell-based, Amycolatopsis lurida; remark: listed apart in the source
[5] = Ampicillin resistant strain (pQR368bb-aluC09-aluF03), E. coli BL21 Star (DE3) pLysS
[6] = High copy number strain (p3C.1-AluC09-AluF03), E. coli BL21 Star (DE3) pLysS, 24 hours 30° C.
[7] = Medium copy number strain (pQR368bb-aluC09-aluF03), E. coli BL21 Star (DE3) pLysS, 24 hours 30° C.
[8] = Native ferredoxinaluF03 (p3C.1-AluC09-AluF03), E. coli BL21 Star (DE3) pLysS
[9] = ferredoxinaluF03 and ferredoxin reductaseSCF15A (pQR368bb-aluC09-aluF03), E. coli BL21 Star (DE3) pLysS, Table 7 comparison
[10] = host E. coli BL21 Star (DE3) pLysS, pQR368bb-aluC09-aluF03
[11] = Ferredoxinfd1 from S. griseus 11796 (p3C-AluC09), E. coli BL21 Star (DE3) pLysS
[12] = Kanamycin resistant strain (pHD02-AluC09-AluF03), E. coli BL21 Star (DE3) pLysS
[13] = host E. coli BL21 (DE3) pLysS, pQR368bb-aluC09-aluF03
[14] = host E. coli BL21 (DE3), pQR368bb-aluC09-aluF03
[15] = host E. coli BL21 Star (DE3), pQR368bb-aluC09-aluF03
[16] = pH values of 7.5 and above (pH 8-11)

Structure (SMILES)	hydroxylase activity (conversion to hydroxylated product) ([1]; 10° C.) [%]	hydroxylase activity (conversion to hydroxylated product) ([1]; 22° C.) [%]	hydroxylase activity (conversion to hydroxylated product) ([1]; 27° C. (standard condition)) [%]	hydroxylase activity (conversion to hydroxylated product) ([1]; 37° C.) [%]	% yield of parent-derived products [2, 5] [%]	% yield of parent-derived products [2, 6] [%]	% yield of parent-derived products [2, 7] [%]	% yield of parent-derived products [2, 8] [%]	% yield of parent-derived products [2, 9] [%]	% yield of parent-derived products [2, 10] [%]	% yield of parent-derived products [3] [%]	% yield of parent-derived products [4, 11] [%]	% yield of parent-derived products [4, 12] [%]	% yield of parent-derived products [4, 13] [%]	% yield of parent-derived products [4, 14] [%]	% yield of parent-derived products [4, 15] [%]	hydroxylase activity on the substrate at reaction pH ([1]; pH5 (50 mM Acetate))	hydroxylase activity on the substrate at reaction pH [1, 16]	further results
O=C(O)Cc1ccccc1Nc1c(Cl)cc(O)cc1Cl [4′-HO-Diclofenac, 4′-hydroxydiclofenac]	14	16	21	13	7.5	8.7	27.4	60.3	46.0	7.5	4.7	11.5	6.0	11.3	>1	1.5			
O=C(O)Cc1cc(O)ccc1Nc1c(Cl)cccc1Cl [5-HO-Diclofenac, 5-hydroxydiclofenac]	17	14	12	1	35.2	23.8	60.3	23.8	12.4	35.2	<1	4.2	48.1	45.1	10.3	6.5			
COc1ccccc1Oc1c(NS(=O)(=O)c2ccc(C(C)(C)CO)cc2)nc(-c2ncccn2)nc1OCCO [HO-Bosentan]	91	64	86	33	26.6	18.2	52.6	52.6	29.5	26.6	9.3	6.3	41.6	34.1	13.6	9.1			hydroxylase activity (conversion to hydroxylated product) ([1]; 45° C.): 19%; % yield of parent-derived products ([4]; Ferredoxin reductasecamA and ferredoxincamB from P. putida (pHD02-AluC09-PdR-PdX), E. coli BL21 (DE3)): 21.2%; % yield of parent-derived products ([4]; ferredoxinaluF03 and ferredoxin reductaseSCF15A (pHD02-AluC09-AluF03), E. coli BL21 (DE3)): 27.4%
COc1ccccc1Oc1c(NS(=O)(=O)c2ccc(C(C)(C)C)cc2)nc(-c2ncccn2)nc1OCCO [bosentan, reference compound]																	only barely detectable	remain	
O=C(O)Cc1ccccc1Nc1c(Cl)cccc1Cl [diclofenac, reference compound]																	only barely detectable	remain	
CC(C)[C@H](NC(=O)N(C)Cc1csc(C(C)(C)O)n1)C(=O)N[C@@H](Cc1ccccc1)C[C@H](O)[C@H](Cc1ccccc1)NC(=O)OCc1cncs1 [ε-HO-Ritonavir, ε-HO—N-methylisopropylthiazoloylmethyl-ritonavir]	36	36	34	19															
